The supplement of paper PMC11208160

test: recombinant barcode read abundance after kanamycin selection (control-corrected) (log10(CPM+1)); higher = more efficient recombination; sequences stand for … in AGTGCAGAGAAAATCGGCCAGTTTTCTCTGCCTGCAGTCCGCATGCCGT…AGATTTATGCAGCGGACTGCCTTTCTCCCAAAGTGATAAACCGGACAGTATCATGGACCGGTTTTCCCGGTAATCCGTATTTGCAAGGTTGGTTTCACT; site = the 11-nt target
Method in brief: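 A promoter, a target, a barcode and the first 104 bridge RNA bases under J23119 made up each oligo. Oligos were Gibson-cloned into a vector bearing the other 73 bp and a T7-inducible recombinase, then co-electroporated into E. coli with a donor plasmid and plated in duplicate on chloramphenicol/ampicillin LB agar (control) or chloramphenicol/ampicillin/kanamycin with 0.1 mM IPTG. Recombination efficiency is the averaged, control-corrected counts per million of recombinant-junction barcodes. Reported values are log10(CPM+1).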
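Further: IS621 recombinase and bridge RNA in Escherichia coli cells.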

| Sequence | recombinant barcode read abundance (log10) |
| --- | --- |
| GCATCTACTTGGGTTCTAACCTGTTGCTA (site CATAACGCTAG) | 0.185 |
| TCAATAGCTTGGGTTCTAACCTGTTGCAC (site AAGCCGCCTAA) | 0.204 |
| GCTAGTCCTTGGGTTCTAACCTGTTGCTG (site GCTAGTCCTAC) | 0.537 |
| AATTGTTCTTGGGTTCTAACCTGTTGCCT (site AATGCTTCTAG) | 0.028 |
| CAACACTCTTGGGTTCTAACCTGTTGCCT (site CAACACTCTAG) | 2.43 |
| GAGATGACTTGGGTTCTAACCTGTTGCGG (site GAGACGACTCG) | 0.0565 |
| TAGCACCCTTGGGTTCTAACCTGTTGCCA (site TAGCACCCTGG) | 0.156 |
| GTACCGCCTTGGGTTCTAACCTGTTGCCT (site GTACCGCCTAG) | 1.01 |
| CGCTGACCTTGGGTTCTAACCTGTTGCTT (site CGCTGACCTAA) | 0.0663 |
| GGAATCCCTTGGGTTCTAACCTGTTGCCT (site GGAATCCCTAG) | 1.64 |
| CTGCCCTCTTGGGTTCTAACCTGTTGCCT (site CCGCCCTCTAG) | 0.179 |
| ACATTGTCTTGGGTTCTAACCTGTTGCCT (site ACCTTGTCTAG) | 0.0705 |
| GTAAGTACTTGGGTTCTAACCTGTTGCGG (site GTAAGTACTCC) | 2.06 |
| GCCAGACCTTGGGTTCTAACCTGTTGCCT (site GCCACACCTAG) | 0.0708 |
| ATATTATCTTGGGTTCTAACCTGTTGCCA (site ATATGATCTAG) | 0.0788 |
| GATCGAACTTGGGTTCTAACCTGTTGCCT (site GATCGAACTAG) | 0.204 |
| TCGAAGTCTTGGGTTCTAACCTGTTGCTA (site AGATCTCCTAC) | 0.0769 |
| CCTAAACCTTGGGTTCTAACCTGTTGCGT (site CCTAAACCTAC) | 1.63 |
| GCGATGTCTTGGGTTCTAACCTGTTGCCT (site GCGATGTCTAG) | 1.33 |
| AGCCACTCTTGGGTTCTAACCTGTTGCCT (site AGCCACCCTAG) | 0.149 |
| CACCGAGCTTGGGTTCTAACCTGTTGCTA (site CACCGAGCTTA) | 0.528 |
| TTCTCTCCTTGGGTTCTAACCTGTTGCCT (site TTCTATCCTAG) | 0.0831 |

| Sequence | recombinant barcode read abundance (log10) |
| --- | --- |
| AAGCCTACTTGGGTTCTAACCTGTTGCTA (site GAGCCTACTTA) | 0.0396 |
| GAAATAACTTGGGTTCTAACCTGTTGCGT (site GAAATAACTAC) | 0.995 |
| GCGAATCCTTGGGTTCTAACCTGTTGCCT (site GCGTATCCTAG) | 0.099 |
| GCCGAGTCTTGGGTTCTAACCTGTTGCTA (site GCCGAGTCTCA) | 0.357 |
| CGGAATTCTTGGGTTCTAACCTGTTGCCT (site CGGAATTCTAG) | 1.17 |
| CATTAGTCTTGGGTTCTAACCTGTTGCCT (site CATTAGTCTAG) | 1.33 |
| TGTAAGGCTTGGGTTCTAACCTGTTGCTT (site TGTAAGACTCA) | 0.142 |
| ATCCTACCTTGGGTTCTAACCTGTTGCTT (site ATCGTACCTCA) | 0.113 |
| TCCGGTTCTTGGGTTCTAACCTGTTGCCT (site TCCGGTTCTAG) | 0.965 |
| CATGCTCCTTGGGTTCTAACCTGTTGCCT (site CATGCTCCTAG) | 0.353 |
| GGGTAATCTTGGGTTCTAACCTGTTGCCT (site GGGTAATCTAG) | 0.725 |
| TCCTAGTCTTGGGTTCTAACCTGTTGCAG (site GGTCCTCCTTC) | 0.0984 |
| TGGTGTGCTTGGGTTCTAACCTGTTGCCA (site TAGTGTCCTTG) | 0.0537 |
| CGCTGGTCTTGGGTTCTAACCTGTTGCCT (site CGCTAGTCTAG) | 0.309 |
| GATCGAGCTTGGGTTCTAACCTGTTGCAG (site GATCGAGCTCT) | 1.42 |
| AGGGCAGCTTGGGTTCTAACCTGTTGCCT (site AGGGTAGCTAG) | 0.0905 |
| ACATATCCTTGGGTTCTAACCTGTTGCGT (site ACATATCCTAC) | 1.78 |
| TAGTGTCCTTGGGTTCTAACCTGTTGCCT (site TAGTGTCCTAG) | 1.11 |
| GGAGAGACTTGGGTTCTAACCTGTTGCAT (site GGAGAGACTAT) | 2.79 |
| GTAGTAACTTGGGTTCTAACCTGTTGCCT (site GTAGTATCTAG) | 0.0374 |
| CGTGCGTCTTGGGTTCTAACCTGTTGCCT (site CGTGCGTCTAG) | 0.918 |
| AGGGTAGCTTGGGTTCTAACCTGTTGCCT (site AGGGGAGCTAG) | 0.163 |

| Sequence | recombinant barcode read abundance (log10) |
| --- | --- |
| CCGAATCCTTGGGTTCTAACCTGTTGCCT (site CCGATTCCTAG) | 0.199 |
| GAGACGGCTTGGGTTCTAACCTGTTGCTT (site GAGCCGGCTAA) | 0.193 |
| CCAAGATCTTGGGTTCTAACCTGTTGCCT (site CCAAGATCTAG) | 0.556 |
| CGCCTCCCTTGGGTTCTAACCTGTTGCCT (site CGCCTCTCTAG) | 0.0882 |
| CAAACTCCTTGGGTTCTAACCTGTTGCGT (site CAAACTCCTAT) | 0.0528 |
| AGGGTACCTTGGGTTCTAACCTGTTGCAG (site GAATCGACTAG) | 0.0315 |
| CCGGGATCTTGGGTTCTAACCTGTTGCCT (site ACGGGATCTAG) | 0.323 |
| GGGTTCCCTTGGGTTCTAACCTGTTGCCT (site GGGTTCGCTAG) | 0.031 |
| TATTAATCTTGGGTTCTAACCTGTTGCCT (site TATTAATCTAG) | 0.0472 |
| GACTGTCCTTGGGTTCTAACCTGTTGCGA (site GACCGTCCTTG) | 0.372 |
| TAGATTCCTTGGGTTCTAACCTGTTGCAA (site CGACAGTCTAG) | 0.102 |
| GAGCGGCCTTGGGTTCTAACCTGTTGCAG (site GAGCGGCCTCT) | 1.72 |
| GGCAGATCTTGGGTTCTAACCTGTTGCTT (site GGCAGATCTAA) | 0.193 |
| TATTCACCTTGGGTTCTAACCTGTTGCCT (site GATTCACCTAG) | 0.0774 |
| CAAAACTCTTGGGTTCTAACCTGTTGCTT (site CAAAACTCTAA) | 0.554 |
| ACGCGTCCTTGGGTTCTAACCTGTTGCCG (site TCGCGTCCTCG) | 0.355 |
| TAAGTCCCTTGGGTTCTAACCTGTTGCCT (site GAAGTCCCTAG) | 0.017 |
| CCGCATGCTTGGGTTCTAACCTGTTGCCT (site CCGCATGCTAG) | 0.234 |
| ACAGTATCTTGGGTTCTAACCTGTTGCTG (site ACAGTATCTCA) | 0.479 |
| CTCTACCCTTGGGTTCTAACCTGTTGCGT (site CTCTACCCTAC) | 0.589 |
| GATAGACCTTGGGTTCTAACCTGTTGCCT (site GATAGACCTAG) | 1.57 |
| CTTACAGCTTGGGTTCTAACCTGTTGCCT (site CTTACAGCTAG) | 0.644 |

| Sequence | recombinant barcode read abundance (log10) |
| --- | --- |
| TTGATTGCTTGGGTTCTAACCTGTTGCCT (site TTGAATGCTAG) | 0.0762 |
| TGAAAGTCTTGGGTTCTAACCTGTTGCCT (site TGAACGTCTAG) | 0.0267 |
| AGAAGCCCTTGGGTTCTAACCTGTTGCCT (site ACAAGCCCTAG) | 0.269 |
| CAACACTCTTGGGTTCTAACCTGTTGCCT (site CTACACTCTAG) | 0.446 |
| GAGATCCCTTGGGTTCTAACCTGTTGCTG (site GAGATCCCTTA) | 0.188 |
| ATACTCTCTTGGGTTCTAACCTGTTGCCT (site ATACTCTCTAG) | 2.43 |
| TAGAATACTTGGGTTCTAACCTGTTGCGG (site TATAATACTCC) | 0.0627 |
| CATGAGCCTTGGGTTCTAACCTGTTGCCT (site CATCAGCCTAG) | 0.0278 |
| CCTGTATCTTGGGTTCTAACCTGTTGCCT (site GCTGTATCTAG) | 0.26 |
| TGGTAGTCTTGGGTTCTAACCTGTTGCGT (site TGGTAGTCTAC) | 2.57 |
| CTTCAATCTTGGGTTCTAACCTGTTGCCT (site CTTGAATCTAG) | 0.35 |
| CTTAGGACTTGGGTTCTAACCTGTTGCCG (site CTTAGGACTCG) | 0.577 |
| GGCCGGTCTTGGGTTCTAACCTGTTGCCT (site GGCCGGACTAG) | 0 |
| TTAACTACTTGGGTTCTAACCTGTTGCTT (site TTAACTACTTA) | 0.0225 |
| CCAAGGGCTTGGGTTCTAACCTGTTGCCG (site CCAAGGGCTCG) | 0.143 |
| GCGTGAGCTTGGGTTCTAACCTGTTGCCT (site GCTTGAGCTAG) | 0.0594 |
| TCGTGTTCTTGGGTTCTAACCTGTTGCTA (site CCTTGTTCTTA) | 0.0623 |
| GTGGAAGCTTGGGTTCTAACCTGTTGCCT (site GGGGAAGCTAG) | 0.262 |
| GTGTGGACTTGGGTTCTAACCTGTTGCAG (site GTGAGGACTCA) | 0.0484 |
| TAGGTGTCTTGGGTTCTAACCTGTTGCCT (site TACGTGTCTAG) | 0.181 |
